This note sets out measurements from patent EP4741439A1, “BLOCK COPOLYMER CONTAINING REPEATING UNIT OF POLY([R, S]BETA-HYDROXYBUTYRATE), NANOPARTICLES FORMED FROM SAID COPOLYMER, AND PRODUCTION AND USE OF THOSE” (University of Tsukuba, priority 2023, dated 2025).

Series [1] relates to cisplatin-induced acute kidney injury (AKI). Put plainly: Protective effect on acute kidney injury by subcutaneous injection. It counts as in vivo, C57BL/6J male mice. To be noted: subcutaneous injection about 250 mg in terms of BHB/kg, 6 hours prior to cisplatin 20 mg/kg; 72 hours after challenge. The procedure: C57BL/6J male mice (8 weeks old) were divided into four groups for use in different treatments. Acute kidney injury was induced by intraperitoneal injection of cisplatin (20 mg/kg). A mouse was pretreated with subcutaneous injection of physiological saline (n = 11) or sodium β-hydroxybutyrate (at a dose in terms of BHB/kg of about 250 mg, n = 1) or Nano^BHB (at a dose in terms of BHB/kg of about 250 mg, n = 10) 6 hours prior to exposure to cisplatin. The healthy group (n = 8) was injected with physiological saline instead of cisplatin. 72 hours after the cisplatin challenge, the mouse was sacrificed, and blood plasma and kidney were collected. Renal function was assessed by measuring the levels of blood urea nitrogen (BUN), creatinine (CRE), aspartate transaminase (AST). […] In the figure, (A) represents a scheme of animal experiment, (B) is a graphical representation of data on blood urea nitrogen in plasma of an AKI mouse 3 days after injection of cisplatin, (C) is a graphical representation of data on creatinine, (D) is a graphical representation of data on aspartate transaminase, (E) is a presentation image of periodic acid Schiff (PAS) staining at 20 fold magnification of kidney tissue, and (F) is a graph summarizing data of the result of quantitative measurement of a damaged region of the kidney from a stained image. […]

The subject of series [2] is Bovine aortic endothelial cells (BAEC). Put plainly: Cytotoxicity, WST cell viability. In kind it is cell-based. Conditions: 24 hours, BHB content from 0 to 25.4 mM. The procedure:
Bovine aortic endothelial cells (BAEC) (available from RIKEN (RIKEN, Tsukuba, Japan)) were pre-seeded on a 96 well (well) plate and incubated with either Nano^BHB or BHB at different concentrations with a BHB content of from 0 to 25.4 mM in a medium. After 24 hours, the medium was discarded, followed by addition of 100 µL of medium containing 10 µL of WST agent and incubation for 4 hours. In a final process, cell viability was measured based on a ratio of optical signals of a subject well and a water treatment group well at a wavelength of 450 nm in each well.

Each structure is given as a SMILES string.

Take `CC(O)CC(=O)[O-].[Na+]` (stereo not drawn) [sodium β-hydroxybutyrate]: in series [1], the “Effect against cisplatin-induced acute kidney injury (BUN, CRE, AST, PAS staining)” value is reported as “no decrease in renal function is observed”. Also, in series [2], the “survival rate and morphology of the BAEC cells” value is on record as “do not affect”.
